This note sets out measurements from US20220064696A1, “TARGET ENGAGEMENT ASSAY FOR RAS PROTEINS” (Promega Corporation, priority 2020, published 2022).

Common to all, as to format: binding
The target of assay [1] is T1, KRAS2B(G12C) (Homo sapiens, UniProt P01116, G12C).
T1 construct: expressed in transfected cells; host or cells: HEK293
Put plainly: Target engagement at KRAS(G12C) homomultimeric complexes, NanoBiT oligomer configuration with SmBiT tag. The following applies: LgBiT-KRAS2B(G12C) and SmBiT-KRAS2B(G12C). As for the experimental part:
To explore this concept, the NanoBiT™ Technology was used to observe KRAS multimeric (e.g., dimer) complexes by NanoBiT tagging of KRAS, wherein BRET donor signal originates from an oligomeric KRAS. In a tissue culture flask, HEK293 cells per well were transfected with KRAS-NanoBiT fusions, LgBiT-KRAS2B(G12C) and SmBiT-KRAS2B(G12C) expressed from pNB3K or pNB4K plasmids along with pGEM-3Z carrier DNA (1:1:8 ratio by mass). Transfections were performed using 3:1 FuGENE HD:plasmid ratios. 24 hours post transfection, cells were treated with compound JRW-2220 and BI-2852.
(§1) After incubation in live cells, NanoBRET-TE substrate solution was added to a final concentration of 1×, and BRET was measured on a Glomax Discover plate reader.
The assay was also performed in digitonin permeabilized cells.

In assay [2] the target is T1, KRAS2B(G12C). Put plainly: KRAS(G12C) homomultimeric complexes, NanoBiT oligomer configuration with HiBiT tag. Conditions: LgBiT-KRAS2B(G12C) and HiBiT-KRAS2B(G12C). As for the experimental part: To explore this concept, the NanoBiT™ Technology was used to form KRAS multimeric (e.g., dimer) complexes by NanoBiT tagging of KRAS, wherein BRET donor signal originates from an oligomeric KRAS. In a tissue culture flask, HEK293 cells per well were transfected with KRAS-NanoBiT fusions, LgBiT-KRAS2B(G12C) and HiBiT-KRAS2B(G12C) expressed from pNB3K or pFN38A plasmids along with pGEM-3Z carrier DNA (1:1:8 ratio by mass). Transfections were performed using 3:1 FuGENE HD:plasmid ratios. 24 hours post transfection, cells were treated with compound JRW-2220 and BI-2852.
as §1
The assay was also performed in digitonin permeabilized cells. Even after permeabilization, donor signal levels remained significant due to the use of the HiBiT tag, facilitating measurement of target engagement.

In assay [3] the target is T2, KRAS2B(G12V) (Homo sapiens, UniProt P01116, G12V).
T2 construct: expressed in transfected cells; host or cells: HEK293
Briefly: Target engagement at KRAS(G12V) homomultimeric complexes, NanoBiT oligomer configuration with SmBiT tag. Conditions: live HEK293 cells, LgBiT-KRAS2B(G12V) and SmBiT-KRAS2B(G12V), FIG. 5. As for the experimental part: To explore this concept, the NanoBiT™ Technology was used to observe KRAS multimeric (e.g., dimer) complexes by NanoBiT tagging of KRAS, wherein BRET donor signal originates from an oligomeric KRAS. In a tissue culture flask, HEK293 cells per well were transfected with KRAS-NanoBiT fusions, LgBiT-KRAS2B(G12V) and SmBiT-KRAS2B(G12V) expressed from pNB3K or pNB4K plasmids along with pGEM-3Z carrier DNA (1:1:8 ratio by mass). Transfections were performed using 3:1 FuGENE HD:plasmid ratios. 24 hours post transfection, cells were treated with compound JRW-2192 and BI-2852.
as §1

Assay [4] has as its target T3, KRAS^G12D (Homo sapiens, UniProt P01116, G12D).
T3 construct: expressed in transfected cells; host or cells: HEK293
Put plainly: NanoLuc fusion BRET target engagement assay in cells, tracer JRW-2025. The following applies: HEK293 cells, tracer JRW-2025, FIG. 4. As for the experimental part:
(§2) Luminescence was produced from either NanoLuc (Nluc) tagging of KRAS as the BRET donor, or by NanoBiT tagging of KRAS, wherein BRET donor signal originates from KRAS multimeric species in cells. In 96-well plates, 20,000 HEK293 cells per well were transfected with KRAS-Nluc fusions or KRAS-NanoBiT fusions expressed from pFN31K and pFN32K plasmids. Transfections were performed using 3:1 FuGENE HD:plasmid ratios. […] After incubation, NanoBRET-TE substrate solution was added to a final concentration of 1×, and BRET was measured on a Glomax Discover plate reader.

Assay [5] has as its target T4, KRAS (Homo sapiens, UniProt P01116).
T4 construct: expressed in transfected cells; host or cells: HEK293
Described as above. The following applies: HEK293 cells, wild-type KRAS-NanoLuc fusion, tracer JRW-2025, FIG. 4. As for the experimental part: as §2

In assay [6] the target is T5, KRAS^G12C (Homo sapiens, UniProt P01116, G12C).
T5 construct: expressed in transfected cells; host or cells: HEK293
The description is as above. The following applies: HEK293 cells, tracer JRW-2025, FIG. 4. As for the experimental part: as §2

Assay [7] deals with T6, KRAS^G12V (Homo sapiens, UniProt P01116, G12V).
T6 construct: expressed in transfected cells; host or cells: HEK293
The description is as above. The following applies: HEK293 cells, tracer JRW-2025, FIG. 4. As for the experimental part: as §2

For `O=C(CCOCCOCCOCCOCCNC(=O)CCc1ccc2n1[B-](F)(F)[N+]1=C(c3ccc[nH]3)C=CC1=C2)NCCCn1cnc(Cn2ccc3ccc(CNCc4[nH]c5ccccc5c4C4NC(=O)c5ccc(O)cc54)cc32)c1` (stereo not drawn) [JRW-2220, 1-(3-(5,5-difluoro-7-(1H-pyrrol-2-yl)-5H-5λ^4,6λ^4-dipyrrolo[1,2-c:2′,1′-f][1,3,2]diazaborinin-3-yl)propanamido)-N-(3-(4-((6-((((3-(6-hydroxy-3-oxoisoindolin-1-yl)-1H-indol-2-yl)methyl)amino)methyl)-1H-indol-1-yl)methyl)-1H-imidazol-1-yl)propyl)-3,6,9,12-tetraoxapentadecan-15-amide], the “BRET signal with increasing concentrations of the tracer” value in assay [1] (digitonin permeabilized HEK293 cells, FIG. 7) is listed as “dose-dependent increase in the BRET signal”; in assay [1] (live HEK293 cells, FIG. 6), “dose-dependent increase in the BRET signal”; in assay [2] (digitonin permeabilized HEK293 cells, FIG. 9), “dose-dependent increase in the BRET signal”; in assay [2] (live HEK293 cells, FIG. 8), “dose-dependent increase in the BRET signal”.
`O=C(CCc1ccc2n1[B-](F)(F)[N+]1=C(c3ccc[nH]3)C=CC1=C2)NCCOCCOCCOCCOCCC(=O)NCc1cccc(Cn2ccc3ccc(CNCc4[nH]c5ccccc5c4C4NC(=O)c5ccc(O)cc54)cc32)c1` (stereo not drawn) [JRW-2192, 1-(3-(5,5-difluoro-7-(1H-pyrrol-2-yl)-5H-5λ^4,6λ^4-dipyrrolo[1,2-c:2′,1′-f][1,3,2]diazaborinin-3-yl)propanamido)-N-(3-((6-((((3-(6-hydroxy-3-oxoisoindolin-1-yl)-1H-indol-2-yl)methyl)amino)methyl)-1H-indol-1-yl)methyl)benzyl)-3,6,9,12-tetraoxapentadecan-15-amide]: in assay [3], the “BRET signal with increasing concentrations of the tracer” value was “dose-dependent increase in the BRET signal”.
For `C=CC(=O)N1CCN(c2ncnc3c(F)c(-c4c(O)cccc4F)c(Cl)cc23)CC1` [ARS-1620], the “competition with the KRAS binding agent (BRET)” value in assay [4] is listed as “only observed for the KRAS^G12C mutant”; in assay [5] it was “only observed for the KRAS^G12C mutant”; in assay [6] it was “competition was only observed for the KRAS^G12C mutant”; in assay [7], “only observed for the KRAS^G12C mutant”.
